In brackets after ≈: the same amount, converted by molar mass.
Legend:
[1] = Drug solubility of free PTL and PTL-loaded nanoparticles; format: physicochemical; settings: phosphate buffer, pH 7.4
[2] = Pharmacokinetic study in albino rats; format: in vivo; settings: 10 mg/kg

For CC(=O)O[C@H]1C(=O)[C@@]2(C)[C@H]([C@H](OC(=O)c3ccccc3)[C@]3(O)C[C@H](OC(=O)[C@H](O)[C@@H](NC(=O)c4ccccc4)c4ccccc4)C(C)=C1C3(C)C)[C@]1(OC(C)=O)CO[C@@H]1C[C@@H]2O [PTL, Paclitaxel], which solubility at 24 h [1] is on record?
The solubility at 24 h was about 4.5 µg/mL (≈ 5.27 µM).

What about the AUC(0-inf) ([2]; rat, plasma, po) of the same compound?
Its AUC(0-inf) is 2980 ± 53.1 ng·h/mL.

What about the AUC(0-t) ([2]; rat, plasma, po) of the same compound?
The AUC(0-t) was 2830 ± 56.8 ng·h/mL.

And the Cmax ([2]; rat, plasma, po)?
Its Cmax is 239 ± 26.2 ng/mL.

What about the Tmax ([2]; rat, plasma, po) of the same compound?
Its Tmax is 2 ± 0.05 h.

What about the half-life ([2]; rat, plasma, po) of the same compound?
The half-life was 8.76 ± 1.1 h.

What about the Kel ([2]; rats) of the same compound?
The Kel was 0.072 ± 0.001.

What about the “plasma PTL concentration after 12 h” value ([2]; rats, HPLC) of the same compound?
The value was “below the HPLC quantification limit”.
